These results are taken from PubChem BioAssay AID1259407 (Chemical Carcinogenesis Research Information System (CCRIS), 2018).

This series relates to CCRIS mutagenicity, Ames/micronucleus/aberration tests. Description: CCRIS mutagenicity studies.
The mark [1] stands for this setting: Test System: AMES SALMONELLA TYPHIMURIUM, Strain/Indicator: TA98, Metabolic Activation: NONE, Method: STANDARD PLATE.
Setting [2] is: Test System: AMES SALMONELLA TYPHIMURIUM, Strain/Indicator: TA100, Metabolic Activation: NONE, Method: STANDARD PLATE.
The mark [3] stands for this setting: Test System: AMES SALMONELLA TYPHIMURIUM, Strain/Indicator: TA1535, Metabolic Activation: NONE, Method: STANDARD PLATE.
The mark [4] stands for this setting: Test System: AMES SALMONELLA TYPHIMURIUM, Strain/Indicator: TA1537, Metabolic Activation: NONE, Method: STANDARD PLATE.
[5] abbreviates: Test System: AMES SALMONELLA TYPHIMURIUM, Strain/Indicator: TA100, Metabolic Activation: NONE, Method: PREINCUBATION
The mark [6] stands for this setting: Test System: AMES SALMONELLA TYPHIMURIUM, Strain/Indicator: TA100, Metabolic Activation: RAT, LIVER, S-9, AROCLOR 1254, Method: PREINCUBATION

The source made the active and inactive calls. No rule for the calls is given here.

Consider `OCl`, for which the mutagenic call was “inactive; negative” (End Point: IN VIVO MICRONUCLEUS, Test System: BONE MARROW POLYCHROMATIC ERYTHROCYTES, Species: MOUSE, Strain/Sex: DDY/MALE, Route: IP); “inactive; negative” (Test System: AMES SALMONELLA TYPHIMURIUM, Strain/Indicator: TA97, Metabolic Activation: NONE, Method: PREINCUBATION); “inactive; negative” (Test System: AMES SALMONELLA TYPHIMURIUM, Strain/Indicator: TA97, Metabolic Activation: RAT, LIVER, S-9, AROCLOR 1254, Method: PREINCUBATION); “inactive; negative” (Test System: AMES SALMONELLA TYPHIMURIUM, Strain/Indicator: TA98, Metabolic Activation: NONE, Method: FLUCTUATION TEST); “inactive; negative” under setting [1]; “inactive; negative” (Test System: AMES SALMONELLA TYPHIMURIUM, Strain/Indicator: TA98, Metabolic Activation: RAT, LIVER, S-9, AROCLOR 1254, Method: STANDARD PLATE). The mutagenic call (Test System: AMES SALMONELLA TYPHIMURIUM, Strain/Indicator: TA100, Metabolic Activation: NONE, Method: FLUCTUATION TEST) is “inactive; negative”; the mutagenic call under setting [2] was “inactive; negative”; the mutagenic call (Test System: AMES SALMONELLA TYPHIMURIUM, Strain/Indicator: TA100, Metabolic Activation: RAT, LIVER, S-9, AROCLOR 1254, Method: STANDARD PLATE) was “inactive; negative”; the mutagenic call (Test System: AMES SALMONELLA TYPHIMURIUM, Strain/Indicator: TA102, Metabolic Activation: NONE, Method: FLUCTUATION TEST) is “inactive; negative”; the mutagenic call (Test System: AMES SALMONELLA TYPHIMURIUM, Strain/Indicator: TA102, Metabolic Activation: NONE, Method: PREINCUBATION) was “inactive; negative”; the mutagenic call (Test System: AMES SALMONELLA TYPHIMURIUM, Strain/Indicator: TA102, Metabolic Activation: RAT, LIVER, S-9, AROCLOR 1254, Method: PREINCUBATION) was “inactive; negative”. The mutagenic call under setting [3] is “inactive; negative”; the mutagenic call (Test System: AMES SALMONELLA TYPHIMURIUM, Strain/Indicator: TA1535, Metabolic Activation: RAT, LIVER, S-9, AROCLOR 1254, Method: STANDARD PLATE) was “inactive; negative”; the mutagenic call under setting [4] is “inactive; negative”; the mutagenic call (Test System: AMES SALMONELLA TYPHIMURIUM, Strain/Indicator: TA1537, Metabolic Activation: RAT, LIVER, S-9, AROCLOR 1254, Method: STANDARD PLATE) was “inactive; negative”; the mutagenic call (Test System: AMES SALMONELLA TYPHIMURIUM, Strain/Indicator: TA1538, Metabolic Activation: NONE, Method: STANDARD PLATE) is “inactive; negative”; the mutagenic call (Test System: AMES SALMONELLA TYPHIMURIUM, Strain/Indicator: TA1538, Metabolic Activation: RAT, LIVER, S-9, AROCLOR 1254, Method: STANDARD PLATE) was “inactive; negative”. Further, the mutagenic call by setting is: (Test System: CHINESE HAMSTER OVARY, Strain/Indicator: CHO-K1-BH4 (HGPRT), Metabolic Activation: NONE, Method: STANDARD PLATE) “inactive; negative”; (Test System: UDS RODENT HEPATOCYTES, Strain/Indicator: THY INCORP (NON-S-PHASE), Metabolic Activation: NONE, Method: LIQUID SCINTILLATION COUNTING) “inactive; negative”.
Regarding `CCCCCOc1ccc(N=O)cc1`, the mutagenic call under setting [2] is “active; positive”.
With `CC(Br)(CO)CBr` (stereo unspecified), the mutagenic call under setting [2] was “inactive; negative”.
In the case of `COc1ccc(-c2oc3ccccc3c(=O)c2N)cc1N`, the mutagenic call runs as follows: (Test System: AMES SALMONELLA TYPHIMURIUM, Strain/Indicator: TA100, Metabolic Activation: RAT LIVER S-9, AROCLOR 1254, Method: STANDARD PLATE) “active; positive”; (Test System: AMES SALMONELLA TYPHIMURIUM, Strain/Indicator: YG1042, Metabolic Activation: RAT LIVER S-9, AROCLOR 1254, Method: STANDARD PLATE) “active; positive”.
As to `NCCc1c[nH]c2ccc(O)cc12` (tested in a mixture with another compound), the mutagenic call (Test System: AMES SALMONELLA TYPHIMURIUM, Strain/Indicator: TA97A, Metabolic Activation: NONE, Method: STANDARD PLATE) is “inactive; negative”; the mutagenic call (Test System: AMES SALMONELLA TYPHIMURIUM, Strain/Indicator: TA97A, Metabolic Activation: RAT LIVER S-9, PHENOBARBITOL/BETA-NAPHTHOFLAVONE, Method: STANDARD PLATE) was “inactive; negative”; the mutagenic call under setting [1] was “inactive; negative”; the mutagenic call (Test System: AMES SALMONELLA TYPHIMURIUM, Strain/Indicator: TA98, Metabolic Activation: RAT LIVER S-9, PHENOBARBITOL/BETA-NAPHTHOFLAVONE, Method: STANDARD PLATE) was “inactive; negative”; the mutagenic call under setting [2] was “inactive; negative”; the mutagenic call (Test System: AMES SALMONELLA TYPHIMURIUM, Strain/Indicator: TA100, Metabolic Activation: RAT LIVER S-9, PHENOBARBITOL/BETA-NAPHTHOFLAVONE, Method: STANDARD PLATE) is “inactive; negative”. Besides, the mutagenic call by setting is: under setting [3], “inactive; negative”; (Test System: AMES SALMONELLA TYPHIMURIUM, Strain/Indicator: TA1535, Metabolic Activation: RAT LIVER S-9, PHENOBARBITOL/BETA-NAPHTHOFLAVONE, Method: STANDARD PLATE) “inactive; negative”; under setting [4], “inactive; negative”; (Test System: AMES SALMONELLA TYPHIMURIUM, Strain/Indicator: TA1537, Metabolic Activation: RAT LIVER S-9, PHENOBARBITOL/BETA-NAPHTHOFLAVONE, Method: STANDARD PLATE) “inactive; negative”; (Test System: E.COLI, Strain/Indicator: WP2/UVRA, Metabolic Activation: NONE, Method: STANDARD PLATE) “inactive; negative”; (Test System: E.COLI, Strain/Indicator: WP2/UVRA, Metabolic Activation: RAT LIVER S-9, PHENOBARBITOL/BETA-NAPHTHOFLAVONE, Method: STANDARD PLATE) “inactive; negative”.
Take `C=C(C)C=O`: the mutagenic call was “active; positive” (Test System: AMES SALMONELLA TYPHIMURIUM, Strain/Indicator: TA100, Metabolic Activation: NONE, Method: MODIFIED LIQUID SUSPENSION); “active; positive” under setting [5]; “active; positive” (Test System: AMES SALMONELLA TYPHIMURIUM, Strain/Indicator: TA100, Metabolic Activation: RAT LIVER S-9, AROCLOR 1254, Method: PREINCUBATION); “active; positive” (Test System: AMES SALMONELLA TYPHIMURIUM, Strain/Indicator: TA100, Metabolic Activation: RAT, LIVER, S-9, AROCLOR 1254, Method: MODIFIED LIQUID SUSPENSION); “active; positive” under setting [6]; “active; positive” (Test System: AMES SALMONELLA TYPHIMURIUM, Strain/Indicator: TA104, Metabolic Activation: NONE, Method: PREINCUBATION). For the same compound, the mutagenic call by setting is: (Test System: CHINESE HAMSTER V-79, Strain/Indicator: V-79 (HPRT)/6-THIOGUANINE, Metabolic Activation: NONE) “active; positive”; (Test System: CHINESE HAMSTER V-79, Strain/Indicator: V-79 (HPRT)/6-THIOGUANINE, Metabolic Activation: RAT LIVER S-9, AROCLOR 1254) “inactive; negative”.
In the case of `O=C(OCc1ccccc1[N+](=O)[O-])c1ccccc1`, the mutagenic call was “inactive; negative” (Test System: AMES SALMONELLA TYPHIMURIUM, Strain/Indicator: TA98, Metabolic Activation: NONE, Method: PREINCUBATION); “inactive; negative” under setting [5]; “inactive; negative” under setting [6].
In the case of `Cn1cc2ccc([N+](=O)[O-])cc2n1`, the mutagenic call under setting [1] is “active; positive”.
With `C/C([O-])=C(/N=Nc1cc(S(N)(=O)=O)ccc1[O-])C(=O)Nc1ccccc1.C/C([O-])=C(\N=Nc1cc(S(N)(=O)=O)ccc1[O-])C(=O)Nc1ccccc1.[Co+2]`, the mutagenic call is, setting by setting: (Test System: MOUSE LYMPHOMA, Strain/Indicator: L5178Y (TK+/TK-), Metabolic Activation: NONE, Method: SUSPENSION/PLATE) “inactive; negative. reevaluation of results: negative”; (Test System: MOUSE LYMPHOMA, Strain/Indicator: L5178Y (TK+/TK-), Metabolic Activation: RAT, LIVER, S-9, AROCLOR 1254, Method: SUSPENSION/PLATE) “inactive; negative. reevaluation of results: negative”.
With `Nc1ncnc2c1ncn2/C=C/C=O`, the mutagenic call (Test System: AMES SALMONELLA TYPHIMURIUM, Strain/Indicator: HISD3052, Metabolic Activation: NONE, Method: STANDARD PLATE) is “active; positive”.
